From patent publication US20220193209A1, “COMPOSITIONS AND METHODS FOR REACTIVATING LATENT IMMUNODEFICIENCY VIRUS AND/OR TREATING IMMUNODEFICIENCY VIRUS INFECTION” (The J. David Gladstone institutes, a testamentary trust …, priority 2019, published 2022) come the findings set out here.

The subject of one data set is J-Lat cells. Kind of data set: Cell viability of J-Lat cells by flow cytometry. It counts as cell-based. On the procedure:
FIG. 3, Panel A, depicts results of treatment of a J-Lat cell line 5A8 with increasing concentrations (1-10000 nM) of AS1842856 for 24, 48 and 72 h. HIV-GFP mRNA reactivation was assessed by RT-qPCR and normalized to RPL13A mRNA. Data represent average SD of three independent experiments. p-value relative to the control at each time point. FIG. 3, Panel B, depicts cell viability assessed by flow cytometry at 72 h of the same experiment as in A. Cell viability was measured by gating on both the live population at the forward scatter (FSC) and side scatter (SSC) plot and then the viable cells after staining with the viability dye. FIG. 3, Panel C, depicts results of treatment of J-Lat cell lines A2 and A72 with increasing concentrations of AS1842856 for 24, 48 and 72 h. HIV-GFP reactivation (bars) and cell viability (dots) were analyzed by FACS. HIV-GFP reactivation is reported as a percentage of GFP-expressing cells (% GFP+ cells). Data represent average f SD of at least three independent experiments. FIG. 3, Panel D, depicts the same experiments as in FIG. 3, Panel C, but performed in different J-Lat cell lines 5A8, 6.3, 11.1 and 15.4. Data represent average f SD of at least three independent experiments. 10 ng/mL TNFα was used as control. FIG. 3 Panel E depicts results of treatment of J-Lat cell lines 5A8, 6.3, 11.1 and 15.4 for 72 h with increasing concentrations of both AS1842856 (Y-axis) and TNFα (X-axis) alone or in combination and analyzed by FACS. Calculation of synergy for drug combinations using the Bliss independence model applied to the HIV-GFP reactivation measured as a percentage of GFP-expressing cells (% GFP+ cells).
FIG. 10, Panels A-F depict results of a J-Lat cell line 5A8 treated with different concentrations of inhibitors. FIG. 10, Panel A, depicts results for a J-Lat cell line A58 that was treated with increasing concentrations of A-92 (GCN2 inhibitor) in combination with 1000 nM AS1842856 (72 h) or 10 ng/mL TNFα (24 h). HIV-GFP reactivation was analyzed by FACS and relativized to the control condition. Histogram plots of percent live cells for each drug treatment are shown. FIG. 10, Panel B, depicts the same experiment as in FIG. 10, Panel A, but cells were treated with increasing concentrations of PKR inhibitor (PKRi). Histogram plots representing viability are also shown. Data are represented by mean±SD of three different […]. […] FIG. 10, Panel D, depicts a J-Lat cell line A58 that was treated with increasing concentrations of Ionomycin (0.01, 0.1, 0.5, 1 μM) for 24, 48 and 72 hr. HIV-GFP reactivation and cell viability were analyzed by FACS. FIG. 10, Panel E, depicts a J-Lat cell line 5A8 that was treated for 72 h with increasing concentrations of both Fenretinide (Y-axis) and Ionomycin (X-axis) alone or in combination and analyzed by FACS. HIV-GFP reactivation is reported as a percentage of GFP-expressing cells (% GFP+ cells). FIG. 10, Panel F, depicts a J-Lat cell line 5A8 that was also treated for 72 h with increasing concentrations of both Thapsigargin (Y-axis) and Cyclosporin A (X-axis) alone or in combination and analyzed by FACS. HIV-GFP reactivation is again reported as a percentage of GFP-expressing cells (% GFP+ cells).

Data set [1] relates to latent HIV in CD4+ T cells from HIV-infected patients. Kind of data set: Cell-associated HIV RNA by ddPCR in CD4+ T cells of HIV-infected patients on antiretroviral therapy, ex vivo. Type of data set: cell-based. As to conditions: 100 and 1000 nM, 3 days, five patients.
Method: Cells were treated ex vivo with two concentrations of AS1842856 (100 and 1000 nM), prostratin (250 nM) or combinations thereof for 3 days, and HIV RNA induction was measured by digital droplet PCR (ddPCR).

Consider `CCn1cc(C(=O)O)c(=O)c2c(N)c(F)c(NC3CCCCC3)cc21` [AS1842856, 5-amino-7-(cyclohexylamino)-1-ethyl-6-fluoro-4-oxo-1,4-dihydro-quinoline-3-carboxylic acid], for which the cell viability entry in the data set with J-Lat cells (J-Lat 5A8, 72 h) was “No major effects”; with J-Lat cells (J-Lat A2 and A72), “no effect”. Further, the viability entry in the data set with J-Lat cells (four J-Lat clonal cell lines) is “unaffected”. Moreover, the “HIV RNA induction” value in data set [1] is “two-fold”.
